Measured values from the supplement of paper PMC9763283.

Assays:
Assay in all cases: area under growth-rate inhibition curve (AUC GRI) (dimensionless (GR-based AUC)); higher = less growth inhibition
Settings in all cases: exposure time: 72 h; concentrations: 0.1, 1, 10 uM
SKBR3-LTR = test system: SKBR3-LTR
Method in brief: (§1)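 Six breast cancer cell line models (two triple-negative lines, plus parental and lapatinib + trastuzumab-resistant HER2+ lines) were plated at optimised log-phase densities and exposed to compound at 0.1, 1 or 10 µM for 72 h. Cells were fixed in 4% paraformaldehyde, and nuclei were stained with Hoechst 33342 or DAPI, imaged and counted. Area under the growth-rate inhibition curve came from 2 biological replicates, with growth corrected using Day 0 plates, untreated Day 3 plates and DMSO controls.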

BT474-P = test system: BT474-P
Method in brief: as §1

BT474-LTR = test system: BT474-LTR
Method in brief: as §1

MDA-MB-468 = test system: MDA-MB-468
Method in brief: as §1

SKBR3-P = test system: SKBR3-P
Method in brief: as §1

MDA-MB-231 = test system: MDA-MB-231
Method in brief: as §1

Row | Structure (SMILES) | area under growth-rate inhibition curve (SKBR3-LTR) | area under growth-rate inhibition curve (BT474-P) | area under growth-rate inhibition curve (BT474-LTR) | area under growth-rate inhibition curve (MDA-MB-468) | area under growth-rate inhibition curve (SKBR3-P) | area under growth-rate inhibition curve (MDA-MB-231)
1 | C=C[C@@]1(C)CC(=O)[C@]2(O)[C@@]3(C)[C@@H](O)CCC(C)(C)[C@@H]3[C@H](O)[C@H](OC(C)=O)[C@@]2(C)O1 [Forskolin] | 1.04 | 0.984 | 1.02 | 1.01 | 1.03 | 0.924
2 | Cc1cccc(C(C)c2c[nH]cn2)c1C.Cl (centres undefined) [Medetomidine HCl] | 0.995 | 0.995 | 0.982 | 1.02 | 1.03 | 1.01
3 | N=C(N)NCCC[C@@H](NC(=O)[C@@H]1CCCN1C(=O)[C@@H]1CSSCCC(=O)N[C@@H](Cc2ccc(O)cc2)C(=O)N[C@@H](Cc2ccccc2)C(=O)N[C@@H](CCC(N)=O)C(=O)N[C@@H](CC(N)=O)C(=O)N1)C(=O)NCC(N)=O [Desmopressin] | 1.01 | 0.995 | 0.999 | 1.02 | 1.02 | 1.01
4 | O=C(O)c1ccc2ccccc2c1O.OCc1cc(C(O)CNCCCCCCOCCCCc2ccccc2)ccc1O (centres undefined) [Salmeterol Xinafoate] | 0.993 | 0.905 | 0.877 | 0.875 | 0.95 | 0.832
5 | CCN(C)C(=O)Oc1cccc(C(C)N(C)C)c1.O=C(O)C(O)C(O)C(=O)O (centres undefined) [Rivastigmine Tartrate] | 1.06 | 1.06 | 1.07 | 1.04 | 1.02 | 1.03
6 | O=C(Nc1cccc(Cl)c1)c1ccccn1 | 1.04 | 1.02 | 1.06 | 1.02 | 1.01 | 1.03
7 | CN(C)C(=O)Oc1ccc[n+](C)c1.[Br-] [Pyridostigmine Bromide] | 1.04 | 1.04 | 1.07 | 1.03 | 0.997 | 1.05
8 | CC(C)NCC(O)c1ccc(O)c(O)c1.[Cl-].[H+] (centres undefined) [Isoprenaline HCl] | 1.03 | 1.04 | 1.08 | 1.04 | 0.995 | 1.05
9 | CC(C)NCC(O)COc1ccc(CCOCC2CC2)cc1.[Cl-].[H+] (centres undefined) [Betaxolol] | 1.07 | 1.01 | 1.07 | 1.01 | 0.996 | 1.05
10 | COc1ccc(C(CN(C)C)C2(O)CCCCC2)cc1 (centres undefined) [Venlafaxine] | 1.01 | 0.982 | 0.974 | 0.994 | 0.972 | 0.983
11 | CS(=O)(=O)O.Cc1ccc(N(CC2=NCCN2)c2cccc(O)c2)cc1 [Phentolamine Mesylate] | 1.04 | 0.997 | 1.05 | 0.964 | 0.983 | 1.01
12 | CCC(=O)O[C@@]1(C(=O)SCF)[C@H](C)CC2C3CC(F)C4=CC(=O)C=C[C@]4(C)[C@]3(F)C(O)C[C@@]21C (some centres undefined) [Fluticasone propionate] | 1.05 | 0.985 | 1.04 | 1.04 | 0.915 | 0.973
13 | CNS(=O)(=O)Cc1ccc2[nH]cc(CCN(C)C)c2c1.O=C(O)CCC(=O)O [Sumatriptan Succinate] | 1.06 | 1.05 | 1.1 | 1.03 | 1.04 | 1.02
14 | COS(=O)(=O)[O-].C[N+]1(C)CCC(=C(c2ccccc2)c2ccccc2)CC1 [Diphemanil Methylsulfate] | 1.03 | 1.05 | 1.03 | 1.01 | 0.971 | 1.03
15 | O=C(NCc1ccncc1)C12CC3CC(C1)CC(c1ccc(Cl)cc1)(C3)C2 | 1.04 | 0.985 | 1.08 | 1.01 | 1.02 | 1.04
16 | Nc1nc(NCCc2ccc(O)cc2)nc2nc(-c3ccco3)nn12 | 0.956 | 1.01 | 1.03 | 0.973 | 0.822 | 1.03
17 | O=C(O)c1cccnc1Nc1cccc(C(F)(F)F)c1 [Niflumic acid] | 1.04 | 1.01 | 1.07 | 1.03 | 1.01 | 1.03
18 | NC(N)=Nc1nc(CSCCC(N)=NS(N)(=O)=O)cs1 [Famotidine] | 1.08 | 1.02 | 1.09 | 1.05 | 1.03 | 1.02
19 | Cc1ccc(O)c([C@H](CCN(C(C)C)C(C)C)c2ccccc2)c1.O=C(O)[C@H](O)[C@@H](O)C(=O)O [Tolterodine tartrate] | 1.06 | 1.04 | 1.12 | 1.04 | 0.972 | 1.03
20 | CNS(=O)(=O)CCc1ccc2[nH]cc(C3CCN(C)CC3)c2c1.[Cl-].[H+] [Naratriptan] | 1.06 | 1.04 | 1.04 | 1.04 | 0.994 | 1.02

Row | Structure (SMILES) | area under growth-rate inhibition curve (SKBR3-LTR) | area under growth-rate inhibition curve (BT474-P) | area under growth-rate inhibition curve (BT474-LTR) | area under growth-rate inhibition curve (MDA-MB-468) | area under growth-rate inhibition curve (SKBR3-P) | area under growth-rate inhibition curve (MDA-MB-231)
21 | CN(C)CC(c1ccc(O)cc1)C1(O)CCCCC1.O=C(O)CCC(=O)O (centres undefined) [Desvenlafaxine Succinate] | 1.08 | 1.06 | 1.09 | 1.05 | 1.01 | 1.02
22 | CC(C)Oc1ccc(-c2nc(-c3cccc4c3CC[C@@H]4NCCO)no2)cc1C#N [Ozanimod (RPC1063)] | 0.976 | 0.933 | 1 | 0.927 | 0.984 | 0.889
23 | CC(=O)SCC(Cc1ccccc1)C(=O)NCC(=O)OCc1ccccc1 (centres undefined) [Racecadotril] | 1.08 | 1.04 | 1.07 | 1.02 | 1.01 | 1.02
24 | Cl.Clc1cccc(Cl)c1NC1=NCCN1 [Clonidine HCl] | 1.06 | 1.08 | 1.16 | 1.07 | 1.04 | 1.05
25 | CC(C)C(=O)Oc1ccc(CO)cc1[C@H](CCN(C(C)C)C(C)C)c1ccccc1.O=C(O)/C=C/C(=O)O [Fesoterodine Fumarate] | 0.961 | 0.994 | 1 | 1.01 | 0.973 | 1.01
26 | CC1=C(C(=O)OC2CCCCC2)C(c2ccc([N+](=O)[O-])cc2)C2=C(CC(C)(C)CC2=O)N1 (centres undefined) [FLI-06] | 0.928 | 0.895 | 1.01 | 0.915 | 0.915 | 0.878
27 | COc1ccc2c(c1)c(CC(=O)N1CCOCC1)c(C)n2C(=O)c1ccc(Cl)cc1 [BML-190] | 1.03 | 1.03 | 1.08 | 1.01 | 1.02 | 1.01
28 | CCCN1CCO[C@H]2c3cc(O)ccc3OC[C@@H]21 | 1.05 | 1.08 | 1.06 | 1.03 | 1.03 | 1.02
29 | CCOc1ccc(Cc2cc([C@@H]3O[C@H](CO)[C@@H](O)[C@H](O)[C@H]3O)ccc2Cl)cc1 [Dapagliflozin] | 1.05 | 1.01 | 1.07 | 1.01 | 1.01 | 1.01
30 | C[C@]12CC[C@@H]3c4ccc(O)cc4C[C@@H](CCCCCCCCCS(=O)CCCC(F)(F)C(F)(F)F)[C@H]3[C@@H]1CC[C@@H]2O (some centres undefined) [Fulvestrant] | 1.01 | 0.778 | 0.986 | 0.96 | 0.952 | 1.02
31 | Oc1ccc2ccc(OCCCCN3CCN(c4cccc5sccc45)CC3)cc2n1 [Brexpiprazole] | 1.02 | 1.04 | 1.05 | 0.99 | 1.03 | 1
32 | C[C@H]1CN(C[C@H](Cc2ccccc2)C(=O)NCC(=O)O)CC[C@@]1(C)c1cccc(O)c1 [Alvimopan] | 1.04 | 0.995 | 1.03 | 1.03 | 1.02 | 1.03
33 | CCN(CC)CC(=O)Nc1c(C)cccc1C [Lidocaine] | 1.08 | 1.04 | 1.11 | 1.05 | 1.03 | 1.03
34 | OC[C@H]1O[C@@H](c2ccc(Cl)c(Cc3ccc(O[C@H]4CCOC4)cc3)c2)[C@H](O)[C@@H](O)[C@@H]1O | 1.09 | 1.03 | 1.07 | 1.05 | 1.03 | 1.03
35 | Cc1c(C(=O)NN2CCCCC2)nn(-c2ccc(Cl)cc2Cl)c1-c1ccc(Cl)cc1 [Rimonabant] | 1.04 | 0.979 | 1.07 | 0.987 | 0.953 | 1
36 | CC(C)COc1ccc(CNC(=O)N(Cc2ccc(F)cc2)C2CCN(C)CC2)cc1 [Pimavanserin] | 0.876 | 0.873 | 0.936 | 0.887 | 0.856 | 0.867
37 | CCCC(=O)Nc1ccc(OCC(O)CNC(C)C)c(C(C)=O)c1.[Cl-].[H+] (centres undefined) [Acebutolol HCl] | 1.07 | 1.05 | 1.11 | 1.03 | 1.04 | 1.03
38 | COc1cc2nc(N(C)CCCNC(=O)C3CCCO3)nc(N)c2cc1OC.[Cl-].[H+] (centres undefined) [Alfuzosin HCl] | – | 1.03 | 1.09 | – | 1.01 | –
39 | CCCCC(=O)N(Cc1ccc(-c2ccccc2-c2nnn[nH]2)cc1)[C@H](C(=O)O)C(C)C [Valsartan] | – | 0.974 | 1.02 | 1.04 | 1.02 | 1.04
40 | CNCCCN1c2ccccc2CCc2ccccc21.Cl [Desipramine hydrochloride] | 1.06 | 0.985 | 0.997 | – | – | 1.03
